Patent publication US11835503B2, “TMA-formation inhibitor treatment for elevated TMA-containing compound diseases” (The Cleveland Clinic Foundation, priority 2009, dated 2023)

Legend:
intestinal microflora [1] = test: D3-carnitine gavage in mice, plasma D3-TMA and D3-TMANO by stable isotope dilution LC/MS/MS; type: in vivo; settings: gavage at t=0, plasma
Text: In additional work, mice were gavaged with D3-carnitine and the time dependent appearance of D3-TMA and TMANO were quantified in plasma. Where indicated in FIG. 8, mice were pretreated for 3 weeks with a broad spectrum antibiotic cocktail to suppress intestinal microflora. […] Plasma levels of the deuterium (D3) labeled metabolites of D3-carnitine, D3-TMA and D3-TMANO, were quantified in plasma by stable isotope dilution LC/MS/MS analysis. D3-Carnitine was given by gavage feeding to mice at t=0. Results are shown in FIG. 8, with TMA production shown in FIG. 8B and TMANO production in FIG. 8C.

intestinal microflora [2] = test: D3-carnitine gavage in mice, plasma D3-crotonobetaine and D3-gamma-butyrobetaine by LC/MS/MS; type: in vivo
Text: In further work, mice were gavaged with D3-carnitine and the time dependent appearance of D3-crotonobetaine and gamma butyrobetaine were quantified in plasma. Where indicated in FIG. 9, mice were pretreated for 3 weeks with a broad spectrum antibiotic cocktail to suppress intestinal microflora. […] D3-crotonobetaine and D3-gamma-butyrobetaine were quantified in plasma by LC/MS/MS analysis isolated at the indicated times following D3-carnitine gavage feeding. Results are shown in FIG. 9, with crotonbetaine production shown in FIG. 9A, and gamma-butyrobetain production shown in FIG. 9B.

intestinal flora = test: oral d9-(trimethyl)-PC challenge in subjects, time course of plasma d9-TMA by LC/MS/MS; type: in vivo, humans; settings: human subjects, 250 mg oral
Protocol: TMA is detected in plasma. While TMA is a gas at room and body temperature, if one acidifies the plasma, and the sample flash frozen and analyzed immediately upon thaw, one can measure the TMA cation by mass spectrometry.
Subjects were given 250 mg of d9-(trimethyl)-PC, and then time course of d9-TMA in plasma quantified. […] Plasma TMA was quantified by LC/MS/MS of samples immediately after blood draw, acidification of the plasma with 10 mM HCl to lower TMA vapor pressure, and snap freezing in liquid nitrogen and storage at −80 C until time of analysis.

Molecule: [2H]C([2H])([2H])[N+](C)(C)CC(O)CC(=O)[O-] (stereo not drawn) [D3-carnitine]
- metabolites of D3-carnitine appearing in plasma (D3-TMA, D3-TMANO) (intestinal microflora [1]): both TMA and TMANO are generated as a metabolite of carnitine ingestion
- metabolites of D3-carnitine appearing in plasma (D3-crotonobetaine, D3-gamma-butyrobetaine) (intestinal microflora [2]): both compounds are generated as a metabolite of carnitine ingestion

Molecule: d9-(trimethyl)-PC
- time at which plasma d9-TMA levels increased after the PC challenge (intestinal flora): 4 to 8 h
